Assay results reported in PMC8849072, “Sudapyridine (WX-081), a Novel Compound against Mycobacterium tuberculosis” (Microbiology Spectrum, 2022).
≈ marks a conversion by molar mass, not a printed value.

Legend:
M. tuberculosis H37Rv [1] = assay: MIC by microplate alamarBlue assay (MABA); assay type: cell-based, Mycobacterium tuberculosis; details: for MIC: Mycobacterium tuberculosis, H37RV
[2] = tested on: M. tuberculosis susceptible strain 14286; assay: MIC by microplate alamarBlue assay (MABA); assay type: cell-based, Mycobacterium tuberculosis; details: for MIC: Mycobacterium tuberculosis
[3] = tested on: M. tuberculosis susceptible strain 14280; assay: MIC by microplate alamarBlue assay (MABA); assay type: cell-based, Mycobacterium tuberculosis; details: for MIC: Mycobacterium tuberculosis
[4] = tested on: M. tuberculosis susceptible strain 14241; assay: MIC by microplate alamarBlue assay (MABA); assay type: cell-based, Mycobacterium tuberculosis; details: for MIC: Mycobacterium tuberculosis
[5] = tested on: M. tuberculosis susceptible strain 14242; assay: MIC by microplate alamarBlue assay (MABA); assay type: cell-based, Mycobacterium tuberculosis; details: for MIC: Mycobacterium tuberculosis
[6] = tested on: M. tuberculosis susceptible strain 14480; assay: MIC by microplate alamarBlue assay (MABA); assay type: cell-based, Mycobacterium tuberculosis; details: for MIC: Mycobacterium tuberculosis
[7] = cited from earlier work
[8] = Pharmacokinetic study in mice; assay type: in vivo, BALB/c mice; details: Mice; for AUC(0-inf): read-out: AUC0-inf; for AUC(0-t): read-out: AUC0-last; for half-life: plasma; for At 96 h lung/plasma: lung: lung exposure at 96 h (first number of the pair); for At 96 h lung/plasma: plasma: plasma exposure at 96 h (second number of the pair)
Experimental: (§1) The BALB/c mice, rats, and beagle dogs were used in the PK study and fasted overnight before dosing. Animal doses were administered in two ways. […] Plasma samples were collected from three animals at each time point. Plasma concentrations were determined by liquid chromatography-tandem mass spectrometry (LC-MS/MS). The bioanalytical method by LC-MS/MS for pharmacokinetic (PK) studies in animal and toxicokinetic (TK) in tox studies have been validated. The total area under the concentration-time curve (AUC0-inf), the elimination half-time (t1/2), the peak concentration (Cmax), and the time to reach peak concentration (Tmax) of samples were determined directly from the experimental data using WinNonlin V6.2.1.

[9] = tested on: M. tuberculosis susceptible strain 14242; assay: MBC determination (CFU-based); details: 7 days incubation, 3 log10 CFU decrease
M. tuberculosis H37Rv [10] = assay: MBC determination (CFU-based); details: 7 days incubation, 3 log10 CFU decrease
[11] = Pharmacokinetic study in rats; assay type: in vivo, rat; details: Rat; for At 96 h lung/plasma: lung: lung exposure at 96 h (first number of the pair); for At 96 h lung/plasma: plasma: plasma exposure at 96 h (second number of the pair); for AUC(0-inf): read-out: AUC0-inf; for AUC(0-t): read-out: AUC0-last; for half-life: plasma
Experimental: as §1

[12] = 14-day repeated oral dose toxicity and toxicokinetic head-to-head study in beagle dogs; assay type: in vivo, beagle dog; details: 14 days; for ECG: QT interval / cTnI: 200 mg/kg; for cTnI: one of three males, all others BLQ
[13] = target: T1, human ether-á-go-go-related (hERG) ion channel (Homo sapiens, UniProt Q12809); assay: hERG manual patch-clamp assay in hERG-CHO cell; assay type: cell-based
T1 construct: expressed in transfected cells; host or cells: hERG-CHO cell (CHO cells expressing hERG)
T1 sequence (Q12809 whole entry): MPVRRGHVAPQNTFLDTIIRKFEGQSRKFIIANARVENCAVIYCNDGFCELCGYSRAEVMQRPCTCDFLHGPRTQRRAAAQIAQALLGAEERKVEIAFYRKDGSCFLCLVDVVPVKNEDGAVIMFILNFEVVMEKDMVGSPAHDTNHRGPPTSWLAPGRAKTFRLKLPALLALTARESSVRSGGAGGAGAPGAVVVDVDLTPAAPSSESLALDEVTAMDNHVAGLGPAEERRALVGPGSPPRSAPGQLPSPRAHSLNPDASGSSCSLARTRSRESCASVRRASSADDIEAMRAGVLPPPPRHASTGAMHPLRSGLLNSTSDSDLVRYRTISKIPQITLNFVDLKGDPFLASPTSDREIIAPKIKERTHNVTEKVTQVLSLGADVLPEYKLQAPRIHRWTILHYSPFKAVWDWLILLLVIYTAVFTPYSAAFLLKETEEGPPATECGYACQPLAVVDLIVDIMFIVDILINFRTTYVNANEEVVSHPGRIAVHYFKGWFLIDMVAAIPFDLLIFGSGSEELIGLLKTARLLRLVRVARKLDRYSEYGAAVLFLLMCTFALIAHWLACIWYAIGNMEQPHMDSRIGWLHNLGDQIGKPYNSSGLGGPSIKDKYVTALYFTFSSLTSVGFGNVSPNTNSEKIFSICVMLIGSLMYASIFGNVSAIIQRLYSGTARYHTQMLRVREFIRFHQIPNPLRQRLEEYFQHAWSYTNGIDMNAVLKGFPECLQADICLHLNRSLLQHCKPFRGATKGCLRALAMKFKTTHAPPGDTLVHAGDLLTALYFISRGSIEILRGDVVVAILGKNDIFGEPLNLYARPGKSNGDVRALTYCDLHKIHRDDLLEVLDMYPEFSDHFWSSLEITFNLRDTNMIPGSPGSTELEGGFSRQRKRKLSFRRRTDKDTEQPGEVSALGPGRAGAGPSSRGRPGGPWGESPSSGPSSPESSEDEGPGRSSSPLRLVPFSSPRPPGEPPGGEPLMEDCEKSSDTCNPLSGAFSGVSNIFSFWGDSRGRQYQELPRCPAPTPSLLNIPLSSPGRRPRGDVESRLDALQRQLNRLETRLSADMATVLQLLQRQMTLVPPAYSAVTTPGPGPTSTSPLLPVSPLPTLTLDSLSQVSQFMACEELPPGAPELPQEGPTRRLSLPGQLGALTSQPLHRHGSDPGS
Experimental: A human ether-á-go-go-related (hERG) ion channel in vitro assay was performed in Shanghai Institute of Materia Medica, Shanghai, for the evaluation of cardiac liability testing. The assay was a manual patch-clamp method using electrophysiology in an hERG-CHO cell.

[14] = BALB/c, mouse, in vivo, Iv. 1.0 mg/kg
[15] = BALB/c, mouse, in vivo, Po. 6.25 mg/kg
[16] = beagle dogs, 200 mg/kg oral, listed as bedaquiline fumarate

Question: Which MIC (M. tuberculosis H37Rv [1]) does the source give for `NNC(=O)c1ccncc1` [INH, isoniazid] here?
Answer: 0.031 µg/mL (≈ 0.226 µM)

Question: And the MIC [2]?
Answer: 0.03 µg/mL (≈ 0.219 µM)

Question: What about the MIC [3] of the same compound?
Answer: 0.024 µg/mL (≈ 0.175 µM)

Question: What about the MIC [4] of the same compound?
Answer: 0.034 µg/mL (≈ 0.248 µM)

Question: And the MIC [5]?
Answer: 0.028 µg/mL (≈ 0.204 µM)

Question: And the MIC [6]?
Answer: < 0.02 µg/mL

Question: What does the source list for `COc1nc2ccc(Br)cc2cc1[C@@H](c1ccccc1)[C@@](O)(CCN(C)C)c1cccc2ccccc12` [BDQ, bedaquiline]?
Answer: MIC (M. tuberculosis H37Rv [1]): 0.012 µg/mL (≈ 0.0216 µM); elimination half-life [7]: 5.5 months; MIC [2]: 0.043 µg/mL (≈ 0.0774 µM); MIC [3]: 0.053 µg/mL (≈ 0.0954 µM); AUC(0-inf) [8, 14]: 2160 ng·h/mL; AUC(0-t) [8, 14]: 2100 ng·h/mL; Vd ([8]; BALB/c, mouse, in vivo, Iv. 1.0 mg/kg, read-out: Vdss): 6.21 L/kg; AUC(0-inf) [8, 15]: 6360 ng·h/mL; AUC(0-t) [8, 15]: 6040 ng·h/mL; Cmax ([8]; BALB/c, mouse, in vivo, Po. 6.25 mg/kg, read-out: Cmax): 608 ng/mL; bioavailability ([8]; BALB/c, mouse, in vivo, Po. 6.25 mg/kg, read-out: F): 47.1%; Tmax ([8]; BALB/c, mouse, in vivo, Po. 6.25 mg/kg, read-out: Tmax): 5.33 h; half-life ([8]; BALB/c, mouse, Iv. 1.0 mg/kg): 21.3 h; half-life ([8]; BALB/c, mouse, Po. 6.25 mg/kg): 47.6 h; At 96 h lung/plasma: lung ([8]; Iv. 1.0 mg/kg): 27.1; At 96 h lung/plasma: plasma ([8]; Iv. 1.0 mg/kg): 1.31; At 96 h lung/plasma: lung ([8]; Po. 6.25 mg/kg): 135; At 96 h lung/plasma: plasma ([8]; Po. 6.25 mg/kg): 4.56; MIC [4]: 0.029 µg/mL (≈ 0.0522 µM); MBCs [9]: 0.156 µg/mL; MBCs (M. tuberculosis H37Rv [10]): 0.156 µg/mL; MIC [5]: 0.031 µg/mL (≈ 0.0558 µM); MIC [6]: 0.037 µg/mL (≈ 0.0666 µM); At 96 h lung/plasma: lung ([11]; Iv. 1.0 mg/kg): 62.9; At 96 h lung/plasma: plasma ([11]; Iv. 1.0 mg/kg): 1.89; At 96 h lung/plasma: lung ([11]; Po. 5.0 mg/kg): 58.8; At 96 h lung/plasma: plasma ([11]; Po. 5.0 mg/kg): 1.52; AUC(0-inf) ([11]; in vivo, Iv. 1.0 mg/kg): 1930 ng·h/mL; AUC(0-t) ([11]; in vivo, Iv. 1.0 mg/kg): 1830 ng·h/mL; Vd ([11]; in vivo, Iv. 1.0 mg/kg, read-out: Vdss): 10.3 L/kg; AUC(0-inf) ([11]; in vivo, Po. 5.0 mg/kg): 2680 ng·h/mL; AUC(0-t) ([11]; in vivo, Po. 5.0 mg/kg): 2610 ng·h/mL; Cmax ([11]; in vivo, Po. 5.0 mg/kg, read-out: Cmax): 354 ng/mL; bioavailability ([11]; in vivo, Po. 5.0 mg/kg, read-out: F): 27.7%; Tmax ([11]; in vivo, Po. 5.0 mg/kg, read-out: Tmax): 0.83 h; half-life ([11]; Iv. 1.0 mg/kg): 37.6 h; half-life ([11]; Po. 5.0 mg/kg): 29.3 h

Question: Which results are given for `CO[C@H]1/C=C/O[C@@]2(C)Oc3c(C)c(O)c4c(O)c(c(/C=N/N5CCN(C)CC5)c(O)c4c3C2=O)NC(=O)/C(C)=C\C=C\[C@H](C)[C@H](O)[C@@H](C)[C@@H](O)[C@@H](C)[C@H](OC(C)=O)[C@@H]1C` [RFP, rifampicin]?
Answer: MIC (M. tuberculosis H37Rv [1]): 0.014 µg/mL (≈ 0.017 µM); MIC [2]: < 0.02 µg/mL; MIC [3]: 0.057 µg/mL (≈ 0.0693 µM); MIC [4]: 0.035 µg/mL (≈ 0.0425 µM); MIC [5]: 0.066 µg/mL (≈ 0.0802 µM); MIC [6]: 0.046 µg/mL (≈ 0.0559 µM)

Question: Which MICs (M. tuberculosis H37Rv [1]; H37Rv) does the source give for `NC[C@H]1O[C@H](O[C@H]2[C@H](O)[C@@H](O[C@H]3O[C@H](CO)[C@@H](O)[C@H](N)[C@H]3O)[C@H](N)C[C@@H]2N)[C@H](O)[C@@H](O)[C@@H]1O` [KM, kanamycin] here?
Answer: 0.730 µg/mL

Question: And the MICs [2]?
Answer: 1.154 µg/mL

Question: And the MICs [3]?
Answer: 1.219 µg/mL

Question: And the MICs [4]?
Answer: 2.417 µg/mL

Question: And the MICs [5]?
Answer: 1.146 µg/mL

Question: And the MICs [6]?
Answer: 1.907 µg/mL

Question: For `COc1c(N2C[C@@H]3CCCN[C@@H]3C2)c(F)cc2c(=O)c(C(=O)O)cn(C3CC3)c12` [MFX, moxifloxacin], which MIC (M. tuberculosis H37Rv [1]) is on record?
Answer: 0.045 µg/mL (≈ 0.112 µM)

Question: What about the MIC [2] of the same compound?
Answer: 0.039 µg/mL (≈ 0.0972 µM)

Question: What about the MIC [3] of the same compound?
Answer: 0.035 µg/mL (≈ 0.0872 µM)

Question: And the MIC [4]?
Answer: 0.122 µg/mL (≈ 0.304 µM)

Question: And the MIC [5]?
Answer: 0.037 µg/mL (≈ 0.0922 µM)

Question: For `COc1nc2ccc(Br)cc2cc1[C@@H](c1ccccc1)[C@@](O)(CCN(C)C)c1cccc2ccccc12.O=C(O)/C=C/C(=O)O` [Bedaquiline fumarate, bedaquiline fumarate], which mortality and moribundity ([12]; 200 mg/kg oral once daily, male and female dogs) is on record?
Answer: did not result in mortality and moribundity

Question: And the “ECG: HR” value ([12]; beagle dogs, 200 mg/kg oral)?
Answer: An increased incidence of first- and second-degree atrioventricular block

Question: What about the “qualitative ECG changes associated with oral administration” value ([12]; beagle dogs, 200 mg/kg oral) of the same compound?
Answer: increased incidence of first and second-degree atrioventricular (AV) block

Question: And the “ECG: QT interval” value ([12]; beagle dogs, 200 mg/kg oral)?
Answer: Significant QT interval prolongation

Question: What about the “ECG: QT interval” value [12, 16] of the same compound?
Answer: significant QTc interval prolongation

Question: And the cTnI ([12]; beagle dogs, 200 mg/kg oral)?
Answer: 440 (1/3 male) pg/mL

Question: What about the cTnI [12, 16] of the same compound?
Answer: 440 pg/mL

Question: And the IC50 ([13]; parent compound)?
Answer: > 30 µM

Question: Which IC50 ([13]; metabolites) does the source give for `CNCC[C@@](O)(c1cccc2ccccc12)[C@H](c1ccccc1)c1cc2cc(Br)ccc2nc1OC` [BDQ-M2] here?
Answer: 1.73 µM
